Measurements as given in patent EP1182931B1, “STABLE BIOCIDAL COMPOSITIONS” (NUFARM LIMITED, priority 1999, dated 2000).

Experiments:
Protozoa = conditions: Spectrum of Activity; cited from earlier work
Gastrointestinal Worms = conditions: Spectrum of Activity; cited from earlier work
[1] = system: gastrointestinal roundworm; test: Sheep trial CO52: faecal egg count reduction; assay type: in vivo; conditions: lambs, oral, six days after treatment, versus untreated controls, arithmetic mean
Protocol: An anthelmintic drench trial was conducted on a sheep farm in North Auckland, New Zealand using 67 Romney and Romney cross suffock lambs (18-35kg bodyweight) of mixed sex.
The 67 lambs were randomly allocated by egg count into 4 groups of 10 lambs (Groups A, B, C, D) and 3 groups of 9 lambs (Groups E, F, G). The 3 groups of 9 lambs (E, F G) were drenched with a commercial formulation from one of the three broad spectrum anthelmintic drench families consisting of albendazole, a member of the benzimidazole or white drenches (Group E), levamisole, a member of the imidazothiazole / tetrahydropyrimidazole or clear drenches (Group F) and Ivermectin, a member of the macrocyclic lactones (Group G). Of the 4 remaining groups, Group A remained as untreated controls, Group B received the unmineralised test product (formulation 00-27C) containing all 3 actives (albendazole, levamisole, ivermectin), Group C received the same basic formulation but with the addition of selenium as the sodium selenate (formulation 00-27B) and Group D received the same basic formulation but with the addition of both selenium and cobalt with cobalt given as the cobalt chelate (formulation 00-27A) - See Table 27.
All animals were weighed and dosed by syringe to the nearest 0.1ml with the appropriate product for that group. Six days after oral treatment the animals were slaughtered and faecal samples were collected at slaughter.

Ostertagia = test: Trial C0040 sheep roundworm and tapeworm trial: worm count; assay type: in vivo; conditions: lambs, oral, slaughter Day 7 and Day 8
Protocol: (§1) Fifty three pasture fed 6-8 month old Romney lambs from the southern North Island, New Zealand that were naturally infected with tapeworms, were orally dosed with three times the standard dose of ivermectin (3 x 0.2 = 0.6mg/kg liveweight) to remove their naturally acquired roundworm infection while leaving their tapeworm burden. The animals were then housed indoors on slats to prevent natural reinfections with roundworms and each lamb was orally dosed daily for 5 days with a similar mixture of 5,000 roundworm larvae (total 25,000 larvae) consisting primarily of Haemonchus, Trichostrongylus, Ostertagia and Nematodirus. The larvae originated from four New Zealand sheep farms, three of which had evidence of resistance to one or more drench families. Lambs were injected with 0.5mL of a corticosteroid (opticortenol) two days prior to artificial oral larval infection. This was done to assist establishment of the worm larvae. 25 days after infection the animals were restrictively allocated to groups by bodyweight and also the presence of tapeworm infection, to one of seven treatment groups (Groups A-G). Four treatment groups (the untreated control and test products Groups A-D) had 8 animals per group, and three groups (E-G) contained 7 animals per group. The groups with 7 animals per group (E, F, G) were orally dosed with a single standard commercial product. All animals were slaughtered at Day 7 and Day 8 after treatment and total numbers of gastrointestinal roundworms and tapeworms counted.

Nematodirus = test: as above; assay type: in vivo; conditions: lambs, oral, slaughter Day 7 and Day 8
Protocol: as §1

Trichostrongylus = test: as above; assay type: in vivo; conditions: lambs, oral, slaughter Day 7 and Day 8
Protocol: as §1

Haemonchus = test: as above; assay type: in vivo; conditions: lambs, oral, slaughter Day 7 and Day 8, arithmetic means
Protocol: as §1

Moniezia = test: Trial C0040 sheep roundworm and tapeworm trial: tapeworm count; assay type: in vivo; conditions: lambs, oral, slaughter Day 7 and Day 8
Protocol: as §1, with “The groups with 7 animals per group (E, F, G) were orally dosed with a single standard commercial product.” left out

Compound | Nematodes Gastrointestinal Worms (Gastrointestinal Worms) | reductions in egg count [1] [%] | removal of worm numbers, Ostertagia (Ostertagia) [%] | reduction of Nematodirus in the small intestine (Nematodirus) [%] | further results
COC(=O)Nc1nc2cc(Sc3ccccc3)ccc2[nH]1 [Fendendazole] | – | – | – | – | Protozoa (Protozoa): +(Giardia)
O=C(Nc1cc(Cl)cc(Cl)c1O)c1c(O)c(Cl)cc(Cl)c1Cl [Oxydosanide] | +(Haemonchus) | – | – | – | –
O=C(Nc1ccc(Oc2ccc(Cl)cc2)c(Cl)c1)c1cc(I)cc(I)c1O [Rafoxamide] | +(Haemonchus) | – | – | – | –
c1ccc([C@H]2CN3CCSC3=N2)cc1 [Levamisole] | – | 22 | 96 | 99 | –
CCCSc1ccc2nc(NC(=O)OC)[nH]c2c1 [Albendazole] | – | 63 | 64 | 59 | Protozoa (Protozoa): +(Giardia); efficacy against Trichostrongylus in the small intestine (Trichostrongylus): 80%; reduction in worm numbers, Haemonchus (Haemonchus): 93%; effect on tapeworm Moniezia (Moniezia): slight trend to less Moniezia volume
Ivermectin | – | 79 | 54 | 100 | –
N#Cc1cc(I)c(O)c([N+](=O)[O-])c1 [Nitroxyinil] | +(Haemonchus) | – | – | – | –
Cc1cc(C(C#N)c2ccc(Cl)cc2)c(Cl)cc1NC(=O)c1cc(I)cc(I)c1O (stereo not drawn) [Closantel] | +(Haemonchus) | – | – | – | –
